Source: ChEMBL document CHEMBL5465560, “Selectivity Literature for EUbOPEN Chemogenomic Library” (2024)

Key:
[1] = molecular target: Ephrin type-A receptor 5 (Homo sapiens) (UniProt P54756); test: Selectivity interaction (KinomeScan (DiscoverX)) EUB0000229b EPHA5; details: at 10 µM
[2] = molecular target: Histone-lysine N-methyltransferase 2C (Homo sapiens) (UniProt Q8NEZ4); details: at 1 µM
[3] = molecular target: T1, Mitogen-activated protein kinase kinase kinase 5 (Homo sapiens) (UniProt Q99683); test: Selectivity interaction (Kinase panel (DSF assay)) EUB0001559a MAP3K5
T1 sequence (whole entry): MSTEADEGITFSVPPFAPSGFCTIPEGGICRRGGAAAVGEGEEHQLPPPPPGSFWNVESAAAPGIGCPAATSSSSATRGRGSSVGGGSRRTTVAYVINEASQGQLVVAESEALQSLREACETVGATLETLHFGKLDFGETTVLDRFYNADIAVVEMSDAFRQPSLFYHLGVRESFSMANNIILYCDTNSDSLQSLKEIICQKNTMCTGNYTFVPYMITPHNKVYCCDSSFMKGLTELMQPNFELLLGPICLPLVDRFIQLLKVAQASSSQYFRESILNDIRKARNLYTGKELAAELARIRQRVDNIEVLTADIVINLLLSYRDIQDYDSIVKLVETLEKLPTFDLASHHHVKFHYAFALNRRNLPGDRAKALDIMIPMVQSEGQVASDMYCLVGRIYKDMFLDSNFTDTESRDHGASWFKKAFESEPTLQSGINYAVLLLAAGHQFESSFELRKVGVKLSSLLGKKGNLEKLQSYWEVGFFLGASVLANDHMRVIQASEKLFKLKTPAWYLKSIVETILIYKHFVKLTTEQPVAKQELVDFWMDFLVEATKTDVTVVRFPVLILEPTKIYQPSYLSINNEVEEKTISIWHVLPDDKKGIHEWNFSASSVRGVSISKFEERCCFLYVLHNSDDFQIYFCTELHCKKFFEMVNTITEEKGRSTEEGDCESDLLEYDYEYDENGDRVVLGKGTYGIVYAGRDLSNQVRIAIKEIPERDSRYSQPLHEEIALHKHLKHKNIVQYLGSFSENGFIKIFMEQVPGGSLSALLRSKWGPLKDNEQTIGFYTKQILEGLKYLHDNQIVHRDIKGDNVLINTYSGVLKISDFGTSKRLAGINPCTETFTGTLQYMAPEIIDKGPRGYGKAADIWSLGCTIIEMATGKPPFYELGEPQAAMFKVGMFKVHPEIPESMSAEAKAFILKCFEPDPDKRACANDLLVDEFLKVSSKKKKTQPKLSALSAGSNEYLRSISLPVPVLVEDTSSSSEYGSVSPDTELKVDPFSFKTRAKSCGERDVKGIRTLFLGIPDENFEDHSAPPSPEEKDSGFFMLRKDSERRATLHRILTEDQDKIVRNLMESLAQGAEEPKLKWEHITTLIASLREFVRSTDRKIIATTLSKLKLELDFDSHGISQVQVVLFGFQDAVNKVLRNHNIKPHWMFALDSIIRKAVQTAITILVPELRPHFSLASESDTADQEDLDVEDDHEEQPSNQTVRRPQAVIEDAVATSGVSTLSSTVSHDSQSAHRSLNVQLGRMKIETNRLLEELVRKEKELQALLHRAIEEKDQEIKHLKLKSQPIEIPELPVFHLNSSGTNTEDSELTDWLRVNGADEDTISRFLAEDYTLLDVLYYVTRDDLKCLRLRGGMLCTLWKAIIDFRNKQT

[4] = test system: eIF-2-alpha kinase GCN2 (Homo sapiens), Q9P2K8 [S808G]; test: Selectivity interaction (KinomeScan (DiscoverX)) EUB0001049a EIF2AK4; details: at 1 µM
Ephrin type-A receptor 4 = Ephrin type-A receptor 4 (Homo sapiens, UniProt P54764); test: Selectivity interaction (Upstate Kinase Profiler service (Millipore)) EUB0000056c EPHA4; details: at 1 µM
[5] = molecular target: Serine/threonine-protein kinase PAK 1 (Homo sapiens) (UniProt Q13153); test: Selectivity interaction (ProQinase) EUB0000171b PAK1
[6] = molecular target: T2, Ephrin type-B receptor 2 (Homo sapiens) (UniProt P29323); test: Selectivity interaction (SelectScreen profiling (Invitrogen)) EUB0000607a EPHB2; details: at 2 µM
T2 sequence (whole entry): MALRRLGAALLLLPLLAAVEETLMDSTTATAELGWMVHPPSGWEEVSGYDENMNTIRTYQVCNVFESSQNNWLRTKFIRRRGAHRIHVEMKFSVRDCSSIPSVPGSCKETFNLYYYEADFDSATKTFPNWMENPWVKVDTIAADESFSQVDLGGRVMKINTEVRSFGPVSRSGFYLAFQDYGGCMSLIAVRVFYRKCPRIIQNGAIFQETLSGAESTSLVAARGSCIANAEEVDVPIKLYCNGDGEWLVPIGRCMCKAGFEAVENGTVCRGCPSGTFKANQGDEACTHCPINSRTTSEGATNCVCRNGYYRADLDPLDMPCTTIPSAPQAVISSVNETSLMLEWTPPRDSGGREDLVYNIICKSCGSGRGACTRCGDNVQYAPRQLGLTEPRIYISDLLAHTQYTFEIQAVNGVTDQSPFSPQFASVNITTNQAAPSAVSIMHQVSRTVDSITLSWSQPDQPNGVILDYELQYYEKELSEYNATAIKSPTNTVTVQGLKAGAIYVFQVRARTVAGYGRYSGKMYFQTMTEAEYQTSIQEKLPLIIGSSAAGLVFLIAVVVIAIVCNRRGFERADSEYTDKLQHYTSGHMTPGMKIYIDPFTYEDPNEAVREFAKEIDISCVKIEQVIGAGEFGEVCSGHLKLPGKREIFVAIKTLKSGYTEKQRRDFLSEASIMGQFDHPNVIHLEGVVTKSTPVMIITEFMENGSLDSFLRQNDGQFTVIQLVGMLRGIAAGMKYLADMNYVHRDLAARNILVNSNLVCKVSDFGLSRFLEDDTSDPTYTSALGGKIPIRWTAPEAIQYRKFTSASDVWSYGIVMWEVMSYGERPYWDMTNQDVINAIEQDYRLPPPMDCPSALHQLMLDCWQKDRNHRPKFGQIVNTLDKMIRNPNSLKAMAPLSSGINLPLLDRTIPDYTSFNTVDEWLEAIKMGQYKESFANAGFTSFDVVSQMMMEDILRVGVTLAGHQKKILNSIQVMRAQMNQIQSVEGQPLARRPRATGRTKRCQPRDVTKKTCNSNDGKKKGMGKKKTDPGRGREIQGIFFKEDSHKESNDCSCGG

[7] = molecular target: Calcium/calmodulin-dependent protein kinase type 1D (Homo sapiens) (UniProt Q8IU85); test: Selectivity interaction (SelectScreen profiling (Invitrogen)) EUB0000607a CAMK1D; details: at 2 µM
[8] = molecular target: Ephrin type-A receptor 2 (Homo sapiens) (UniProt P29317); test: Selectivity interaction (KinomeScan (DiscoverX)) EUB0000618a EPHA2; details: at 10 µM
[9] = molecular target: Interferon-induced, double-stranded RNA-activated protein kinase (Homo sapiens) (UniProt P19525); test: Selectivity interaction (Ambit KINOMEscan and KiNATiv profiling in Jurkat cells) EUB0000090b EIF2AK2; format: cell-based; details: at 1 µM

Chain of Serine/threonine-protein kinase PAK 1 (Homo sapiens) (Q13153 whole entry): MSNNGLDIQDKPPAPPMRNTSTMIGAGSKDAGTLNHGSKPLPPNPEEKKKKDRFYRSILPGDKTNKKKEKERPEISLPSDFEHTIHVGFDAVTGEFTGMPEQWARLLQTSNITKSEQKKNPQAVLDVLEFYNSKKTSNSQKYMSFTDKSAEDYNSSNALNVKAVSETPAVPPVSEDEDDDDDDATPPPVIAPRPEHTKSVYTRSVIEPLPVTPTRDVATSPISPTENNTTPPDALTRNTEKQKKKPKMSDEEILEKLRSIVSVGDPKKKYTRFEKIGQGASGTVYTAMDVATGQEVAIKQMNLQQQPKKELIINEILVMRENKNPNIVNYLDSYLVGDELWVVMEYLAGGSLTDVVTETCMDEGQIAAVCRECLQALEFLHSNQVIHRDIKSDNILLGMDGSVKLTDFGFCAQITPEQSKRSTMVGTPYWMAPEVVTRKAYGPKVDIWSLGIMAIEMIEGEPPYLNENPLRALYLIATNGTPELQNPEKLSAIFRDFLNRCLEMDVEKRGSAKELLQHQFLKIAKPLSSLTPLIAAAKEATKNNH
Chain of eIF-2-alpha kinase GCN2 (Homo sapiens), Q9P2K8 [S808G] (Q9P2K8 whole entry S808G): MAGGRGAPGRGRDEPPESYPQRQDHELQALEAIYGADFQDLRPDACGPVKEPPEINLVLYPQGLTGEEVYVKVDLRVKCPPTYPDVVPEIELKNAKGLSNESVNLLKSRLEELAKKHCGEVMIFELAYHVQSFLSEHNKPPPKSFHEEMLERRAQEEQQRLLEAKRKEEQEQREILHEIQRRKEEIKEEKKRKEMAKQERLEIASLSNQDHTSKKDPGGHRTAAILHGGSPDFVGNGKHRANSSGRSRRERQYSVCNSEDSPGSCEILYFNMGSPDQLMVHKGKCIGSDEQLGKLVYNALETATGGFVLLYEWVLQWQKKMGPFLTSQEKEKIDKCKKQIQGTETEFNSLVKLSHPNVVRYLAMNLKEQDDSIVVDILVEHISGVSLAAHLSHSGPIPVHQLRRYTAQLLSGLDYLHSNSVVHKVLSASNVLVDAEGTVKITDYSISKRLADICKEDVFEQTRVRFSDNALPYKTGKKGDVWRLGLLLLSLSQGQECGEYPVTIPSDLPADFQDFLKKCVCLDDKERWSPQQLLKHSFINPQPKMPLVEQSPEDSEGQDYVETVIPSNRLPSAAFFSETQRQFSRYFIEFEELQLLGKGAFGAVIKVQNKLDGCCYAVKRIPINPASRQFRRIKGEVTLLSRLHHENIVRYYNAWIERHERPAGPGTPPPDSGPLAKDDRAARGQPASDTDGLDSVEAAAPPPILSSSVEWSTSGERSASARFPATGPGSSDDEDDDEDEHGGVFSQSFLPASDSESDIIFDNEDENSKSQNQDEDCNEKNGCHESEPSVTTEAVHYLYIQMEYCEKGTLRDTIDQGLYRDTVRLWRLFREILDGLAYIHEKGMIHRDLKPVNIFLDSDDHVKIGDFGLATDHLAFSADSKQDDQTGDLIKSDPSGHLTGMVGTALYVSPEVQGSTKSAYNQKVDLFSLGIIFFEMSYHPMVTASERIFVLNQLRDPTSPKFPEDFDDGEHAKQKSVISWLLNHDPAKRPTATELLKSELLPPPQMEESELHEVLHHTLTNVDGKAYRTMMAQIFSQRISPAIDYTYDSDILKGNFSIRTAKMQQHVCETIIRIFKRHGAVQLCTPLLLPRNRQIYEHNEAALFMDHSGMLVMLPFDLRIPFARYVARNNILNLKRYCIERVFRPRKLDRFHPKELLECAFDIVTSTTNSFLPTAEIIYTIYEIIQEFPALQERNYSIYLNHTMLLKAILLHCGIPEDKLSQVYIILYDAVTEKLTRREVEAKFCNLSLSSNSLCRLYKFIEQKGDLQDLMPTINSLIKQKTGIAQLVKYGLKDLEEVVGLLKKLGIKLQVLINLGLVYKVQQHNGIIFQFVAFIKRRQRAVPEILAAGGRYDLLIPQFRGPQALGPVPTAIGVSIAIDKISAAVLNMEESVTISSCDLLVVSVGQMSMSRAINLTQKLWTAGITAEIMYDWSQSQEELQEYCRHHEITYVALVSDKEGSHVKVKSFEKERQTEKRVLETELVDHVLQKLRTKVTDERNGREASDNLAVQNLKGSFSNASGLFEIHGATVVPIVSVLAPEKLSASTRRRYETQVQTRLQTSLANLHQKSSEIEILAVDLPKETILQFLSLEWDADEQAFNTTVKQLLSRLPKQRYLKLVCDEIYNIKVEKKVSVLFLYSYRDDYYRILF
Chain of Ephrin type-A receptor 2 (Homo sapiens) (P29317 whole entry): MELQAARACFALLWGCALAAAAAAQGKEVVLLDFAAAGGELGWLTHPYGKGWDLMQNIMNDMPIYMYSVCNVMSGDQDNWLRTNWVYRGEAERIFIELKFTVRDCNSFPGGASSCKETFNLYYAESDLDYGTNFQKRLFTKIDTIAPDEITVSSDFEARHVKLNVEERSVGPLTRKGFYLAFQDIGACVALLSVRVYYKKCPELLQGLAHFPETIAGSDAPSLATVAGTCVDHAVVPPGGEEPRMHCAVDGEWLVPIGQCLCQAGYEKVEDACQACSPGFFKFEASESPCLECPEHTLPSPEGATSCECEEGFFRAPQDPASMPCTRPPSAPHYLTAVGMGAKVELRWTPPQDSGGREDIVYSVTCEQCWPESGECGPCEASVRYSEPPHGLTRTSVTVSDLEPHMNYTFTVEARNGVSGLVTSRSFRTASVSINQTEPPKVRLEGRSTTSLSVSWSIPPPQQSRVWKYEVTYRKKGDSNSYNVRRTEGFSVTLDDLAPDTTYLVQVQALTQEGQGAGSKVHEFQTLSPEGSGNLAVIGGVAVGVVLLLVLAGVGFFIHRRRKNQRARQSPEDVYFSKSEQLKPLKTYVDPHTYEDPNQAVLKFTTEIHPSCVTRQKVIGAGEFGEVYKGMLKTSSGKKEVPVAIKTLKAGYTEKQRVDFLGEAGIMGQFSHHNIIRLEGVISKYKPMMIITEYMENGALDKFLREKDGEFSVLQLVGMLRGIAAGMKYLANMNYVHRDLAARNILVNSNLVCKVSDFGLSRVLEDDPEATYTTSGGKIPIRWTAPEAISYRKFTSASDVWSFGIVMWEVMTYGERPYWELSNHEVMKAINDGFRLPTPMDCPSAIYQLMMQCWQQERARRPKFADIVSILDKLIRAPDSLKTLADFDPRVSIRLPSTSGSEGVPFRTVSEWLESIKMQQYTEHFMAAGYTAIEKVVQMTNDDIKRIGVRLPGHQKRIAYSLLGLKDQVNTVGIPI
Chain of Ephrin type-A receptor 5 (Homo sapiens) (P54756 whole entry): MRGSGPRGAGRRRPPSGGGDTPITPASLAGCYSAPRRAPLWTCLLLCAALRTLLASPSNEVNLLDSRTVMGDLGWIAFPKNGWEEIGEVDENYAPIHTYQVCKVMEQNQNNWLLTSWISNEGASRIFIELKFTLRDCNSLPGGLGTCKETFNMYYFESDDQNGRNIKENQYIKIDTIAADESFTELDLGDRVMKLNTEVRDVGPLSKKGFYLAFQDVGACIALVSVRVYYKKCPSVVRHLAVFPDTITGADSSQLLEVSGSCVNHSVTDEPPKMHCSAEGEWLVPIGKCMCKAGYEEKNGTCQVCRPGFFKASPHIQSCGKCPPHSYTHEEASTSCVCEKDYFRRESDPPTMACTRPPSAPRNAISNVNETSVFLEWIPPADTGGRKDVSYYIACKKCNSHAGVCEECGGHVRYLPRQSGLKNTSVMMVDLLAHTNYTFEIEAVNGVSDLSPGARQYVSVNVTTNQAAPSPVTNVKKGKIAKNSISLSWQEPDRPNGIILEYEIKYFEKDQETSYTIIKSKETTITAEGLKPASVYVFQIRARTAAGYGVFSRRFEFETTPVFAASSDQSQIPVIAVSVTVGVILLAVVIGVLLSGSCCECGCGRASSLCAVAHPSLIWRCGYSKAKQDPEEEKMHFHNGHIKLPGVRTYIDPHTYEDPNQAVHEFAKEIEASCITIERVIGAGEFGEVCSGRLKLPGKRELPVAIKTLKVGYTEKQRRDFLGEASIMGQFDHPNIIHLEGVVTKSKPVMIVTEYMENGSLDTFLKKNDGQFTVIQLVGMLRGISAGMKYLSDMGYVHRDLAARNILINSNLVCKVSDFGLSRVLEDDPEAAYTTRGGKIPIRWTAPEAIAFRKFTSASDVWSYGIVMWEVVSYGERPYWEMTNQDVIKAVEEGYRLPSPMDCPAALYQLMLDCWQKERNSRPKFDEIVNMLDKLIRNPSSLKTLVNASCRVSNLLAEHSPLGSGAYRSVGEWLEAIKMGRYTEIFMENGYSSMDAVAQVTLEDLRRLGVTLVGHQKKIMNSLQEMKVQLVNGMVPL
Chain of Calcium/calmodulin-dependent protein kinase type 1D (Homo sapiens) (Q8IU85 whole entry, looked up): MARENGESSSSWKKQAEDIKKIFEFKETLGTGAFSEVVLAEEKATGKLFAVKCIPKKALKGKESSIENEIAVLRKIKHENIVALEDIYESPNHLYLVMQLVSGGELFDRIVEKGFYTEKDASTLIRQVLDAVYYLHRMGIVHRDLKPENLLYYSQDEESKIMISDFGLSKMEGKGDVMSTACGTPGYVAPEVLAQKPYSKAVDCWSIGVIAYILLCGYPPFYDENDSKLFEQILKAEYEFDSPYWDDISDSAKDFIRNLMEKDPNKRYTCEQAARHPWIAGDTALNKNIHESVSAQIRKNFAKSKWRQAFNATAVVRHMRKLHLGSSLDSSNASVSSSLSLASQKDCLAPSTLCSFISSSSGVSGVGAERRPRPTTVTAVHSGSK

## COc1cc(N(C)c2ccnc3ccc(C(F)(F)F)cc23)cc(OC)c1OC
[1]
  % binding: 97%

## CNCCN1CCC(c2cc(CN(C)C(=O)c3cccc(Oc4ccccc4)c3)ccn2)CC1
[2]
  % activity: > 90%

## CN(C(=O)c1cnn2cccnc12)c1cc2c(cc1N1CCOCC1)C(=O)N(C[C@@H](F)C(C)(C)O)C2
[3]
  dTM: -0.3 K

## COc1cc(Nc2nc(C)cc(-c3cnn4nc(OC)ccc34)n2)cc(C(F)(F)F)c1
[4]
  % of control: 100%

## Cc1ccc(-c2ccc3c(ccc4sc5c(c43)NC[C@@H](C)NC5=O)n2)cn1
Ephrin type-A receptor 4
  % of inhibition: 7%

## C=CC(=O)Nc1cccc(C(=O)Nc2ccc(Nc3cc(-c4[nH]c(SC)nc4C)ccn3)cc2)c1
[5]; at 1 µM
  % of control: 90%
[5]; at 5 µM
  % of control: 84%

## CNC(=O)Nc1ccc(-c2nc(N3CC4CCC(C3)O4)c3cnn(C4CCC5(CC4)OCCO5)c3n2)cc1
[6]
  % of inhibition: 6%
[7]
  % of inhibition: 0%

## O[C@H]1CC[C@H](Nc2ncc3nc(Nc4c(F)cc(F)cc4F)n([C@H]4CCOC4)c3n2)CC1
[8]
  % of control: 99%

## CN(C)C/C=C/C(=O)Nc1ccc(C(=O)N2CCCC(Nc3ncc(Cl)c(-c4c[nH]c5ccccc45)n3)C2)cc1 (stereo unspecified)
[9]
  % of control: 92%
